Measured values: patent US20230322722A1, “MODULATORS OF MYC FAMILY PROTO-ONCOGENE PROTEIN” (Nalo Therapeutics, priority 2020, published 2023)

Assays:
Format in all cases: cell-based
MycN protein = molecular target: T1, MycN protein (Homo sapiens, UniProt P04198); experiment: Degradation of MycN protein, Western blot, SKNBE2 cells (Example 160)
T1 construct: either 2×10^6 of L-363 (human leukemia cell line) or SKNBE2 (neuroblastoma cell line) cells; endogenous in cells; host or cells: SKNBE2 / SK-N-BE(2) neuroblastoma cells
T1 sequence (P04198 1-464): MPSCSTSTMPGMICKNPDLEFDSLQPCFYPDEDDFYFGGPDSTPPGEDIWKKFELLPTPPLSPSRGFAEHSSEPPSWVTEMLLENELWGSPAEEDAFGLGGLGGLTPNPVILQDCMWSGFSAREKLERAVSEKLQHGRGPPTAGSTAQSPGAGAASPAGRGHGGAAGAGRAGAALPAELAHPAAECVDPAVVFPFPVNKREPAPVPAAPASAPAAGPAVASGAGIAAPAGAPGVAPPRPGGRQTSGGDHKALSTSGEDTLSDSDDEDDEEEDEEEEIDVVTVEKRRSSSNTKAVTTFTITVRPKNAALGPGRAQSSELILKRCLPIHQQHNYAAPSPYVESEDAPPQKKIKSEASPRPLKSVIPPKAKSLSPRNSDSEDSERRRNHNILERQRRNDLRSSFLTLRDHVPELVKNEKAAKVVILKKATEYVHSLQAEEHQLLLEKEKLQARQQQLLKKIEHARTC
Procedure, shortened: (§1)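 L-363 or SKNBE2 cells (passage <40, mostly <30) at 1×10^6 cells/mL in RPMI 1640/10% FBS were exposed 6 h to compound added from a 1 mM stock. RIPA lysates (25–30 ug protein) were analysed by SDS-PAGE and immunoblot with 1:500 primary antibody, with protein level quantified by band densitometry.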

MycC protein = molecular target: T2, MycC protein (Homo sapiens, UniProt P01106); experiment: Degradation of MycC protein, Western blot, L-363 cells (Example 160); conditions: for inhibition at 2 µM: 6 h
T2 construct: either 2×10^6 of L-363 (human leukemia cell line) or SKNBE2 (neuroblastoma cell line) cells; endogenous in cells; host or cells: L-363 / L363 human leukemia cells
T2 sequence (P01106 whole entry): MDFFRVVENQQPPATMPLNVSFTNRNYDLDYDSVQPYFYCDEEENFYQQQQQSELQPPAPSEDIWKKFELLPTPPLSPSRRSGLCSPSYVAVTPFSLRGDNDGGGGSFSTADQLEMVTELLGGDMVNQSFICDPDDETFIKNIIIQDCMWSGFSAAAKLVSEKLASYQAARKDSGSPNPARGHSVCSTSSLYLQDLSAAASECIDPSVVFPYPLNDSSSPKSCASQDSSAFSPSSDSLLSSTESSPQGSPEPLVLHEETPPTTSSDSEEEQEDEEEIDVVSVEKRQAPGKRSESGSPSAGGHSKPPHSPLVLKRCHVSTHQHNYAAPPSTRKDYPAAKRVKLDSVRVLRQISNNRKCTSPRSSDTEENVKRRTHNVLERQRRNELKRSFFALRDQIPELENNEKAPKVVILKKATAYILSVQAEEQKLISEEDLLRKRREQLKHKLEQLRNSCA
Procedure, shortened: as §1

MycN protein (n-myc) = molecular target: T3, MycN protein (n-myc) (Homo sapiens, UniProt P04198); experiment: Degradation of MycN protein, 24 h treatment, JESS Western, SK-N-BE(2) cells (Example 161); conditions: SKNBE2 cells
T3 construct: either 2×10^6 of L-363 (human leukemia cell line) or SKNBE2 (neuroblastoma cell line) cells; endogenous in cells; host or cells: SKNBE2 / SK-N-BE(2) neuroblastoma cells
T3 sequence (P04198 1-464): T1 sequence (P04198 1-464)

MycC protein (c-myc) = molecular target: T4, MycC protein (c-myc) (Homo sapiens, UniProt P01106); experiment: Degradation of MycC protein, 24 h treatment, JESS Western, L363 cells (Example 161); conditions: L-363 cells
T4 construct: either 2×10^6 of L-363 (human leukemia cell line) cells; endogenous in cells; host or cells: L-363 / L363 human leukemia cells
T4 sequence (P01106 whole entry): as above
Procedure, shortened: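 L363 suspension cells were seeded at 1E6 per well and exposed to compound, prepared as 10 mM DMSO stocks, for 24 hrs. Cells were pelleted, washed with PBS and lysed on ice in RIPA buffer, and lysate protein was measured by BCA. c-myc was detected by JESS capillary Western in the chemiluminescence channel, normalised to tubulin and GAPDH loading controls read in the NIR channel against a DMSO control.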

CN1CC2(CC(N(C)c3nccc(Nc4cc(C5CC5)[nH]n4)n3)C2)C1 [Compound 7, N4-(5-cyclopropyl-1H-pyrazol-3-yl)-N2-methyl-N2-(2-methyl-2-azaspiro[3.3]heptan-6-yl)pyrimidine-2,4-diamine]
inhibition at 2 µM (MycN protein; SKNBE2, 6 h): < 20%
inhibition at 2 µM (MycC protein): 20 to 49%
inhibition at 0.5 µM (MycN protein (n-myc); 0.5 μM): < 20%
inhibition at 1 µM (MycN protein (n-myc); 1 μM): < 20%
inhibition at 3 µM (MycN protein (n-myc); 3 μM): 20 to 49%
inhibition at 6 µM (MycN protein (n-myc); 6 μM): 80 to 100%
inhibition at 0.5 µM (MycC protein (c-myc); 0.5 μM): < 20%
inhibition at 1 µM (MycC protein (c-myc); 1 μM): 20 to 49%
inhibition at 3 µM (MycC protein (c-myc); 3 μM): 50 to 79%
inhibition at 6 µM (MycC protein (c-myc); 6 μM): 80 to 100%

CN(c1cc(C2CCCC2)[nH]n1)c1ccnc(N(C)[C@H]2CC[C@H](NC(=O)C3Cc4ccccc4C3)CC2)n1 [Compound 143, N-((1R,4R)-4-((4-((5-cyclopentyl-1H-pyrazol-3-yl)(methyl)amino)pyrimidin-2-yl)(methyl)amino)cyclohexyl)-2,3-dihydro-1H-indene-2-carboxamide]
inhibition at 2 µM (MycN protein; SKNBE2, 6 h): < 20%
inhibition at 2 µM (MycC protein): < 20%

Cn1nnc(CNC(=O)[C@H]2CC[C@H](N(C)c3nccc(Nc4cc(C5CC5)[nH]n4)n3)CC2)n1 [Compound 144, (1R,4R)-4-((4-((5-cyclopropyl-1H-pyrazol-3-yl)amino)pyrimidin-2-yl)(methyl)amino)-N-((2-methyl-2H-tetrazol-5-yl)methyl)cyclohexane-1-carboxamide]
inhibition at 2 µM (MycN protein; SKNBE2, 6 h): 80 to 100%
inhibition at 2 µM (MycC protein): 80 to 100%

Cn1nnc(C(=O)N[C@H]2CC[C@H](N(C)c3nccc(Nc4cc(C5CCCC5)[nH]n4)n3)CC2)n1 [Compound 145, N-((1R,4R)-4-((4-((5-cyclopentyl-1H-pyrazol-3-yl)amino)pyrimidin-2-yl)(methyl)amino)cyclohexyl)-2-methyl-2H-tetrazole-5-carboxamide]
inhibition at 2 µM (MycN protein; SKNBE2, 6 h): 50 to 79%
inhibition at 2 µM (MycC protein): 80 to 100%

CN(c1cc(C2CC2)[nH]n1)c1ccnc(N(C)[C@H]2CC[C@H](NC(=O)c3nnn(C)n3)CC2)n1 [Compound 147, N-((1R,4R)-4-((4-((5-cyclopropyl-1H-pyrazol-3-yl)(methyl)amino)pyrimidin-2-yl)(methyl)amino)cyclohexyl)-2-methyl-2H-tetrazole-5-carboxamide]
inhibition at 2 µM (MycN protein; SKNBE2, 6 h): < 20%
inhibition at 2 µM (MycC protein): 20 to 49%

CN(c1cc(C2CCCC2)[nH]n1)c1ccnc(N(C)[C@H]2CC[C@H](NC(=O)c3cccc(S(C)(=O)=O)c3)CC2)n1 [Compound 148, N-((1R,4R)-4-((4-((5-cyclopentyl-1H-pyrazol-3-yl)(methyl)amino)pyrimidin-2-yl)(methyl)amino)cyclohexyl)-3-(methylsulfonyl)benzamide]
inhibition at 2 µM (MycN protein; SKNBE2, 6 h): < 20%
inhibition at 2 µM (MycC protein): 20 to 49%

CN(c1nccc(Nc2cc(C3CC3)[nH]n2)n1)[C@H]1CC[C@H](NC(=O)c2cn(C3COC3)nn2)CC1 [Compound 149, N-((1R,4R)-4-((4-((5-cyclopropyl-1H-pyrazol-3-yl)amino)pyrimidin-2-yl)(methyl)amino)cyclohexyl)-1-(oxetan-3-yl)-1H-1,2,3-triazole-4-carboxamide]
inhibition at 2 µM (MycN protein; SKNBE2, 6 h): 80 to 100%
inhibition at 2 µM (MycC protein): 80 to 100%

CN(c1nccc(Nc2cc(C3CC3)[nH]n2)n1)[C@H]1CC[C@H](NC(=O)c2cn(CC3(C)COC3)nn2)CC1 [Compound 150, N-((1R,4R)-4-((4-((5-cyclopropyl-1H-pyrazol-3-yl)amino)pyrimidin-2-yl)(methyl)amino)cyclohexyl)-1-((3-methyloxetan-3-yl)methyl)-1H-1,2,3-triazole-4-carboxamide]
inhibition at 2 µM (MycN protein; SKNBE2, 6 h): 80 to 100%
inhibition at 2 µM (MycC protein): 80 to 100%

Cn1nnc2ccc(C(=O)N[C@H]3CC[C@H](N(C)c4nccc(Nc5cc(C6CC6)[nH]n5)n4)CC3)cc21 [Compound 151, N-((1R,4R)-4-((4-((5-cyclopropyl-1H-pyrazol-3-yl)amino)pyrimidin-2-yl)(methyl)amino)cyclohexyl)-1-methyl-1H-benzo[d][1,2,3]triazole-6-carboxamide]
inhibition at 2 µM (MycN protein; SKNBE2, 6 h): 80 to 100%
inhibition at 2 µM (MycC protein): 80 to 100%

CN(c1nccc(Nc2cc(C3CC3)[nH]n2)n1)[C@H]1CC[C@H](NS(=O)(=O)Cc2cccc(C(F)(F)F)c2)CC1 [Compound 152, N-((1R,4R)-4-((4-((5-cyclopropyl-1H-pyrazol-3-yl)amino)pyrimidin-2-yl)(methyl)amino)cyclohexyl)-1-(3-(trifluoromethyl)phenyl)methanesulfonamide]
inhibition at 2 µM (MycN protein; SKNBE2, 6 h): 80 to 100%
inhibition at 2 µM (MycC protein): 80 to 100%

CN(c1nccc(Nc2cc(C3CC3)[nH]n2)n1)[C@H]1CC[C@H](NS(=O)(=O)c2cccc(C#N)c2)CC1 [Compound 154, 3-cyano-N-((1R,4R)-4-((4-((5-cyclopropyl-1H-pyrazol-3-yl)amino)pyrimidin-2-yl)(methyl)amino)cyclohexyl)benzenesulfonamide]
inhibition at 2 µM (MycN protein; SKNBE2, 6 h): 50 to 79%
inhibition at 2 µM (MycC protein): 80 to 100%

CN(c1nccc(Nc2cc(C3CC3)[nH]n2)n1)[C@H]1CC[C@H](NS(=O)(=O)c2cccc(S(C)(=O)=O)c2)CC1 [Compound 155, N-((1R,4R)-4-((4-((5-cyclopropyl-1H-pyrazol-3-yl)amino)pyrimidin-2-yl)(methyl)amino)cyclohexyl)-3-(methylsulfonyl)benzenesulfonamide]
inhibition at 2 µM (MycN protein; SKNBE2, 6 h): 80 to 100%
inhibition at 2 µM (MycC protein): 80 to 100%

CN(c1nccc(Nc2cc(C3CC3)[nH]n2)n1)[C@H]1CC[C@H](NS(=O)(=O)c2ccc(C#N)cn2)CC1 [Compound 156, 5-cyano-N-((1R,4R)-4-((4-((5-cyclopropyl-1H-pyrazol-3-yl)amino)pyrimidin-2-yl)(methyl)amino)cyclohexyl)pyridine-2-sulfonamide]
inhibition at 2 µM (MycN protein; 6 h): 50 to 79%
inhibition at 2 µM (MycC protein): 80 to 100%

CN(c1nccc(Nc2cc(C3CC3)[nH]n2)n1)[C@H]1CC[C@H](NS(=O)(=O)Cc2cccc(S(C)(=O)=O)c2)CC1 [Compound 157, N-((1R,4R)-4-((4-((5-cyclopropyl-1H-pyrazol-3-yl)amino)pyrimidin-2-yl)(methyl)amino)cyclohexyl)-1-(3-(methylsulfonyl)phenyl)methanesulfonamide]
inhibition at 2 µM (MycN protein; SKNBE2, 6 h): 50 to 79%
inhibition at 2 µM (MycC protein): 80 to 100%

CN(c1nccc(Nc2cc(C3CC3)[nH]n2)n1)[C@H]1CC[C@H](NS(=O)(=O)Cc2cccc(C#N)c2)CC1 [Compound 158, 1-(3-cyanophenyl)-N-((1R,4R)-4-((4-((5-cyclopropyl-1H-pyrazol-3-yl)amino)pyrimidin-2-yl)(methyl)amino)cyclohexyl)methanesulfonamide]
inhibition at 2 µM (MycN protein; SKNBE2, 6 h): 50 to 79%
inhibition at 2 µM (MycC protein): 80 to 100%

N-((1R,4R)-4-((4-((5-cyclopropyl-1H-pyrazol-3-yl)amino)pyrimidin-2-yl)(methyl)amino)cyclohexyl)-3-methylcyclopent-3-ene-1-sulfonamide [Compound 153]
% Degradation of MycN (SKNBE2) 6 h, 2 μM (MycN protein): **** (degradation 80-100%)
% Degradation of MycC (L-363) 6 h, 2 μM (MycC protein): **** (degradation 80-100%)
